# Assay results taken from patent publication US10669235B2, “Indole derivatives and their use as protein kinase inhibitors” (RESPIVERT LIMITED, priority 2016, dated 2020).
# Counter-ions that a name gives are not always drawn. Like-named read-outs stand apart in the source and are kept apart here.
# Tests used:
# PAMPA permeability assay = format: in vitro ADME; details: pH 7, PAMPA; for Papp at 5 h, 10 µM: pH 7, 10 μM
# PDGFRβ [1] = molecular target: T1, PDGFRβ (Homo sapiens (Human), UniProt P09619); test: PDGFRβ enzyme inhibition (ADP-Glo assay); format: biochemical; details: mean, n = 2 (nintedanib n = 34)
# PDGFRβ [2] = molecular target: T1, PDGFRβ; test: PDGF-BB induced phosphorylation of PDGFRβ in fibroblasts (MRC5, HTRF); format: cell-based; details: MRC5 cells, PDGFBB stimulation; read-out: PDGFBB-induced PDGFRβ phosphorylation in MRC5 cells (IC50)
# [3] = Pharmacokinetic measurements in rats (i.v., i.t., oral); format: in vivo; details: rat; for concentration at 0.1 h / concentration at 1.5 h / concentration at 6 h / concentration at 24 h: male, CD, lung; for concentration at 0.1 h: read-out: lung concentration (nM) at time 0.1 h; for concentration at 1.5 h: read-out: lung concentration (nM) at time 1.5 h; for concentration at 6 h: read-out: lung concentration (nM) at time 6 h; for concentration at 24 h: read-out: lung concentration (nM) at time 24 h
# MRC5 cells = test: Cell viability assay in MRC5 cells (MTT)
# [4] = i.t. dose 0.1 (nintedanib 0.42)
# [5] = i.v. dose 0.1 (nintedanib 0.42)
# T1 sequence (P09619 33-1106): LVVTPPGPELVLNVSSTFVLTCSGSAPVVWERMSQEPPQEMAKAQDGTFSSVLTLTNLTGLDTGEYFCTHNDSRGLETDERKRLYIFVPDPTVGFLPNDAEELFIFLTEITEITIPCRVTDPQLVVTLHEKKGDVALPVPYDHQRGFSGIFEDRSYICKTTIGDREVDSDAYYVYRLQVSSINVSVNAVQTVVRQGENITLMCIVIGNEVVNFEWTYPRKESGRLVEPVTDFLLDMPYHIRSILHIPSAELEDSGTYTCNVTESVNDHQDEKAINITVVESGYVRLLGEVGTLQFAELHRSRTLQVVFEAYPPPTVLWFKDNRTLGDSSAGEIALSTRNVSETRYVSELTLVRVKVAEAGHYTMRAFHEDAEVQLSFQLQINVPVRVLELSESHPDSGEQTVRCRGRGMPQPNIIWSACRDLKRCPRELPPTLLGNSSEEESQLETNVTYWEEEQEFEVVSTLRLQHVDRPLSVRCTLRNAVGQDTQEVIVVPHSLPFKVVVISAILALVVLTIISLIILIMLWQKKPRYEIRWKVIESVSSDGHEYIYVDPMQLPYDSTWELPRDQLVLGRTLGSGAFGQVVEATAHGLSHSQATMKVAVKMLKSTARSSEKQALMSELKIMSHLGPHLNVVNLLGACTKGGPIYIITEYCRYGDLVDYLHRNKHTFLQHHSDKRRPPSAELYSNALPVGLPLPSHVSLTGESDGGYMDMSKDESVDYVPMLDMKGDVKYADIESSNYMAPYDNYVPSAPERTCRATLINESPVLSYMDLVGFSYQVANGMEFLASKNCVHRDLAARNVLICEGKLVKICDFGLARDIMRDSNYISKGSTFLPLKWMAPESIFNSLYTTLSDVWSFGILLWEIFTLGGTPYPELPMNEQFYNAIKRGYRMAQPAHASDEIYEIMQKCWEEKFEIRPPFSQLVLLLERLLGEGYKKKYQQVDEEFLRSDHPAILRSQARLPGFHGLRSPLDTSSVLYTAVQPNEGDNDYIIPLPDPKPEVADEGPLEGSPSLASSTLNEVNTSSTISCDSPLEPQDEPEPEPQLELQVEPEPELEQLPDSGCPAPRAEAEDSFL
Compound,"recovery at 5 hr, 10 μM (PAMPA permeability assay) [%]","Papp at 5 h, 10 µM (PAMPA permeability assay) [×10⁻⁶ cm/s]",Ki (PDGFRβ [1]) [nM],IC50 (PDGFRβ [2]) [nM],Cell viability at 100 nM (%) (MRC5 cells),Cell viability at 300 nM (%) (MRC5 cells),Cell viability at 1000 nM (%) (MRC5 cells),further results
"COC(=O)c1cc2c(cc1C)/C(=C(/Nc1ccc(C(=O)NCCN3CCN(C)CC3)cc1)c1ccccc1)C(=O)N2 [Example 4, (Z)-Methyl 5-methyl-3-(((4-((2-(4-methylpiperazin-1-yl)ethyl)carbamoyl)phenyl)amino)(phenyl)methylene)-2-oxoindoline-6-carboxylate]",76,0.0216,11.6,14,–,–,–,"concentration at 0.1 h ([3]; iv): 959 nM; concentration at 1.5 h ([3]; iv): 641 nM; concentration at 6 h ([3]; iv): 156 nM; concentration at 24 h ([3]; iv): 88 nM; concentration at 0.1 h ([3]; other: intra-tracheal): 3490 nM; concentration at 1.5 h ([3]; other: intra-tracheal): 1210 nM; concentration at 6 h ([3]; other: intra-tracheal): 475 nM; concentration at 24 h ([3]; other: intra-tracheal): 370 nM; BAL % administered dose at time 0.1 h [3, 4]: 3.4%; BAL % administered dose at time 1.5 h [3, 4]: 0.4%; BAL % administered dose at time 6 h [3, 4]: 0.4%; BAL % administered dose at time 24 h [3, 4]: 0.3%; BAL % administered dose at time 0.1 h [3, 5]: 0.07%; BAL % administered dose at time 1.5 h [3, 5]: 0.04%; BAL % administered dose at time 6 h [3, 5]: BQL; BAL % administered dose at time 24 h [3, 5]: BQL"
"COC(=O)c1cc2c(cc1C)/C(=C(/Nc1ccc(C(=O)NCCC(=O)N3CCN(C)CC3)cc1)c1ccccc1)C(=O)N2 [Example 10, (Z)-Methyl 5-methyl-3-(((4-((3-(4-methylpiperazin-1-yl)-3-oxopropyl)carbamoyl)phenyl)amino) (phenyl)methylene)-2-oxoindoline-6-carboxylate]",70.4,0.0428,12.7,15.9,85,118.9,108.4,–
"CNC(=O)CN1CCN(C(=O)c2ccc(N/C(=C3\C(=O)Nc4cc(C(=O)OC)c(C)cc43)c3ccccc3)cc2)CC1 [Example 11, (Z)-Methyl 5-methyl-3-(((4-(4-(2-(methylamino)-2-oxoethyl)piperazine-1-carbonyl)phenyl)amino) (phenyl)methylene)-2-oxoindoline-6-carboxylate]",93.2,0.0479,10.6,2.75,82,67.8,28.5,–
"COC(=O)c1cc2c(cc1C)/C(=C(/Nc1ccc(C(=O)NC3CCN(CCO)CC3)cc1)c1ccccc1)C(=O)N2 [Example 13, (Z)-Methyl 3-(((4-((1-(2-hydroxyethyl)piperidin-4-yl)carbamoyl)phenyl)amino) (phenyl)methylene)-5-methyl-2-oxoindoline-6-carboxylate]",76.3,0.0439,10.4,1.25,84.3,93.2,102.1,–
"COC(=O)c1cc2c(cc1C)/C(=C(/Nc1ccc(C(=O)N3CCN(C)CC3)cc1)c1ccccc1)C(=O)N2 [Example 17, (Z)-Methyl 5-methyl-3-(((4-(4-methylpiperazine-1-carbonyl)phenyl)amino)(phenyl)methylene)-2-oxoindoline-6-carboxylate]",59.8,24.6,9.39,4.48,76.2,63.6,34.1,–
"COC(=O)c1cc2c(cc1C)/C(=C(/Nc1ccc(C(=O)N3CCN(CCO)CC3)cc1)c1ccccc1)C(=O)N2 [Example 19, (Z)-Methyl 3-(((4-(4-(2-hydroxyethyl)piperazine-1-carbonyl)phenyl)amino)(phenyl)methylene)-5-methyl-2-oxoindoline-6-carboxylate, 0.5 formate]",61.8,0.589,8.79,5.04,85.5,71.8,21.9,–
"COCCN1CCC(NC(=O)c2ccc(N/C(=C3\C(=O)Nc4cc(C(=O)OC)c(C)cc43)c3ccccc3)cc2)CC1 [Example 20, (Z)-Methyl 3-(((4-((1-(2-methoxyethyl)piperidin-4-yl)carbamoyl)phenyl)amino)(phenyl)methylene)-5-methyl-2-oxoindoline-6-carboxylate]",104,0.0165,19.1,38.9,92.6,91.7,87.2,–
"COC(=O)c1cc2c(cc1C)/C(=C(/Nc1ccc(C(=O)NCCCN3CCN(C)CC3)cc1)c1ccccc1)C(=O)N2 [Example 21, (Z)-Methyl-5-methyl-3-(((4-((3-(4-methylpiperazin-1-yl)propyl)carbamoyl)phenyl)amino)(phenyl)methylene)-2-oxoindoline-6-carboxylate, formate]",76,0.0442,6.11,35.1,139.6,127.3,98.8,–
"COC(=O)c1cc2c(cc1C)/C(=C(/Nc1ccc(C(=O)NCCCN(C)C)cc1)c1ccccc1)C(=O)N2 [Example 22, (Z)-Methyl 3-(((4-((3-(dimethylamino)propyl)carbamoyl)phenyl)amino)(phenyl)methylene)-5-methyl-2-oxoindoline-6-carboxylate, 0.5 formate]",101,0.046,9.29,12.3,72.3,58.8,48.8,–
"COC(=O)c1cc2c(cc1C)/C(=C(/Nc1ccc(S(=O)(=O)NCCN(C)C)cc1)c1ccccc1)C(=O)N2 [Example 25, (Z)-Methyl 3-(((4-(N-(2-(dimethylamino)ethyl)sulfamoyl)phenyl)amino)(phenyl)methylene)-5-methyl-2-oxoindoline-6-carboxylate, formate]",105,11,11.7,24.2,83.2,74.7,55.4,–
"COC(=O)c1cc2c(cc1C)/C(=C(/Nc1ccc(S(=O)(=O)N3CCN(CCO)CC3)cc1)c1ccccc1)C(=O)N2 [Example 26, (Z)-Methyl 3-(((4-((4-(2-hydroxyethyl)piperazin-1-yl)sulfonyl)phenyl)amino)(phenyl)methylene)-5-methyl-2-oxoindoline-6-carboxylate, formate]",96.2,10.3,45,18.1,84.4,91.6,57.6,–
"COC(=O)c1cc2c(cc1C)/C(=C(/Nc1ccc(C(=O)N[C@H]3CCCN(C)C3)cc1)c1ccccc1)C(=O)N2 [Example 27, (S,Z)-Methyl 5-methyl-3-(((4-((1-methylpiperidin-3-yl)carbamoyl)phenyl)amino)(phenyl)methylene)-2-oxoindoline-6-carboxylate, 0.5 formate]",54.3,16.8,18,43,106.5,112.6,82.9,–
"CNC(=O)CN(C)CCNC(=O)c1ccc(N/C(=C2\C(=O)Nc3cc(C(=O)OC)c(C)cc32)c2ccccc2)cc1 [Example 54, (Z)-Methyl 5-methyl-3-(((4-((2-(methyl(2-(methylamino)-2-oxoethyl)amino)ethyl)carbamoyl)phenyl)amino)(phenyl)methylene)-2-oxoindoline-6-carboxylate]",–,–,15.8,5.04,110.2,105.5,92.4,–
"COC(=O)c1cc2c(cc1C)/C(=C(/Nc1ccc(C(=O)NCCN3CCNC(=O)C3)c(F)c1)c1ccccc1)C(=O)N2 [Example 55, (Z)-Methyl 3-(((3-fluoro-4-((2-(3-oxopiperazin-1-yl)ethyl)carbamoyl)phenyl)amino)(phenyl)methylene)-5-methyl-2-oxoindoline-6-carboxylate]",–,–,25.1,9.13,79.4,101.5,101.7,–
"COC(=O)c1cc2c(cc1C)/C(=C(/Nc1ccc(C(=O)NCCN3CCCNC(=O)C3)cc1)c1ccccc1)C(=O)N2 [Example 56, (Z)-Methyl 5-methyl-2-oxo-3-(((4-((2-(3-oxo-1,4-diazepan-1-yl)ethyl)carbamoyl)phenyl)amino)(phenyl)methylene)indoline-6-carboxylate]",–,–,12.6,9.16,100.0,104.9,102.0,–
